Assay results published in ChEMBL document CHEMBL5442175, “EUbOPEN Chemogenomics Library - PDSP Secondary Binding” (2024).
Counter-ions that a name gives are not always drawn.

What was measured:
[1] = biological target: 5-hydroxytryptamine receptor 5A (Homo sapiens, UniProt P47898); assay: (§1) PDSP Secondary Binding target: HTR5A - Compounds are tested at 10 uM concentration, plate are incubated at room temperature in the dark for 90 minutes. Reaction are stopped by vacuum filtration onto 0.3% polyethyleneimine soaked filter mats using Filtermate harvester. Scintillation cocktail is then melted onto microwave-dried filters on a hot plate and the radio activity is counted in Microbia counter.
Chain of 5-hydroxytryptamine receptor 5A (P47898 whole entry): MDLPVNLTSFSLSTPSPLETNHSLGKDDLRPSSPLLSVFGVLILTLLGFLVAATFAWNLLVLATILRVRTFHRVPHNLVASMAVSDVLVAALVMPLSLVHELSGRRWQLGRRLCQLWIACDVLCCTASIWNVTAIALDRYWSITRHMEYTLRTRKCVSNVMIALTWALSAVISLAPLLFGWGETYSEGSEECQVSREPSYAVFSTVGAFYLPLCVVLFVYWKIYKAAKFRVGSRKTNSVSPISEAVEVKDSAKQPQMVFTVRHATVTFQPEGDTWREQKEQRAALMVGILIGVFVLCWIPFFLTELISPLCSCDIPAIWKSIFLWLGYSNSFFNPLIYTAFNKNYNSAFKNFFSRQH

[2] = biological target: Sigma intracellular receptor 2 (Homo sapiens, UniProt Q5BJF2); assay: as §1, with “TMEM97” for “HTR5A”
Chain of Sigma intracellular receptor 2 (Q5BJF2 whole entry): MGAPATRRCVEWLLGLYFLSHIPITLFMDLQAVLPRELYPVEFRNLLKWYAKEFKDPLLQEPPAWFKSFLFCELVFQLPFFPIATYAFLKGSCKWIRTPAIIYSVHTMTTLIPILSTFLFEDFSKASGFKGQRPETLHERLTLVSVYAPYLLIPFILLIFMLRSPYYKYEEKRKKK

[3] = biological target: T1, Alpha-2B adrenergic receptor (Homo sapiens, UniProt P18089); assay: as §1, with “ADRA2B” for “HTR5A”
T1 sequence (P18089 whole entry): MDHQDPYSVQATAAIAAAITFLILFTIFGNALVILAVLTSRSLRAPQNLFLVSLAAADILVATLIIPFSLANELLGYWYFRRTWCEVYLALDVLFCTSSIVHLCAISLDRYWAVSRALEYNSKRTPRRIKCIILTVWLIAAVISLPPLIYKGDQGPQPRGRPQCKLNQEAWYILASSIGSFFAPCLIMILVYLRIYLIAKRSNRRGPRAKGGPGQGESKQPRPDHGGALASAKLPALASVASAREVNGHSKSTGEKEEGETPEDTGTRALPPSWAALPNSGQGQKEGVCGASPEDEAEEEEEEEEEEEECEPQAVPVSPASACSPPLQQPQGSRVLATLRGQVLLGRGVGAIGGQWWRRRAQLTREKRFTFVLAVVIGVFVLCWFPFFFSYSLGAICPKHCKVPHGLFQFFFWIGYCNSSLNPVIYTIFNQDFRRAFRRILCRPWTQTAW

D(3) dopamine receptor = D(3) dopamine receptor (Homo sapiens, UniProt P35462); assay: as §1, with “DRD3” for “HTR5A”
Chain of D(3) dopamine receptor (P35462 whole entry): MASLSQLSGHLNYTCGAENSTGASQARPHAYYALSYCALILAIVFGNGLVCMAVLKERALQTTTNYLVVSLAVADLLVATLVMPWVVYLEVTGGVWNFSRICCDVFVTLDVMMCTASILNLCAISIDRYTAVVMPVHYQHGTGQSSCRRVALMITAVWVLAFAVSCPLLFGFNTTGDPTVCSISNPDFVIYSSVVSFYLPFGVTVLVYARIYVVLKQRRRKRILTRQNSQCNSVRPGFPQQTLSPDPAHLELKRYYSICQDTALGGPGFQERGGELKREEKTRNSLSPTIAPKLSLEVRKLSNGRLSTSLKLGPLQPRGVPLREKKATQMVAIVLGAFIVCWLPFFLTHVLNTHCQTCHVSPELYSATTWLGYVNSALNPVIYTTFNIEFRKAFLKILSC

[4] = biological target: T2, 5-hydroxytryptamine receptor 2C (Homo sapiens, UniProt P28335); assay: as §1, with “HTR2C” for “HTR5A”
T2 sequence (P28335 whole entry): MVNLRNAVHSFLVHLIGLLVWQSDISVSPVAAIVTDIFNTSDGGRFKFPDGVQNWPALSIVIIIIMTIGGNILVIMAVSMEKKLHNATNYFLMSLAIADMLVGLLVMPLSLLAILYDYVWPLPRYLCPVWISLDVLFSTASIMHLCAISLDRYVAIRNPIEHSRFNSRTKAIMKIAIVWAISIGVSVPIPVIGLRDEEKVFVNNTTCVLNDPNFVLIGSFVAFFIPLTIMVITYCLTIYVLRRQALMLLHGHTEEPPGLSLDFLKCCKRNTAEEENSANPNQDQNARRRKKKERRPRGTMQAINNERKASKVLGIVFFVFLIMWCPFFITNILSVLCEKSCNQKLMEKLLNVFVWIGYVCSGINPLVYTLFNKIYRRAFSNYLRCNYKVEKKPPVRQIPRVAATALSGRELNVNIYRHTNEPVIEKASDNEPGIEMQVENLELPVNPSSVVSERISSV

[5] = biological target: T3, Alpha-1A adrenergic receptor (Homo sapiens, UniProt P35348); assay: as §1, with “ADRA1A” for “HTR5A”
T3 sequence (P35348 whole entry): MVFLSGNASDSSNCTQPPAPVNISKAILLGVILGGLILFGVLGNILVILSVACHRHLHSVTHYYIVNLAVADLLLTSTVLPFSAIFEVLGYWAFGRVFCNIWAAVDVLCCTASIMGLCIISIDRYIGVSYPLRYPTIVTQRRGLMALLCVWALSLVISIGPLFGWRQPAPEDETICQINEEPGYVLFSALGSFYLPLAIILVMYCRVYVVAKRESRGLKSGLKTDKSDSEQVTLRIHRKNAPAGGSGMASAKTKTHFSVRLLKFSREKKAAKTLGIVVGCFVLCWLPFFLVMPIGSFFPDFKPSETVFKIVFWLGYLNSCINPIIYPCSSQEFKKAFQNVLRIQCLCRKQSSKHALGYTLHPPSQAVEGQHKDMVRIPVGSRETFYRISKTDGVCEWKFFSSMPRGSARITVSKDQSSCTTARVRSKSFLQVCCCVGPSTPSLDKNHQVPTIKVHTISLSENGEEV

[6] = biological target: 5-hydroxytryptamine receptor 1B (Homo sapiens, UniProt P28222); assay: as §1, with “HTR1B” for “HTR5A”
Chain of 5-hydroxytryptamine receptor 1B (P28222 whole entry): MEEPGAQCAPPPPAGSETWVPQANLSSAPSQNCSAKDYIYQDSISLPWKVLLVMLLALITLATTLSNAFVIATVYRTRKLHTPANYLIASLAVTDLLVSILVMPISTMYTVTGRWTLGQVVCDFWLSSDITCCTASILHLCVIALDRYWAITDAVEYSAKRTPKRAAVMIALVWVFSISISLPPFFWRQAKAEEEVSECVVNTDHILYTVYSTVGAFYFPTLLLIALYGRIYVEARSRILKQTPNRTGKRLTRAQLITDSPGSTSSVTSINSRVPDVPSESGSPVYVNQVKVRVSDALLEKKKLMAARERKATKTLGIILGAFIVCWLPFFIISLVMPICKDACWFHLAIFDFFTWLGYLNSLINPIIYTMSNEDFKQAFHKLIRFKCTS

[7] = biological target: 5-hydroxytryptamine receptor 7 (Homo sapiens, UniProt P34969); assay: as §1, with “HTR7” for “HTR5A”
Chain of 5-hydroxytryptamine receptor 7 (P34969 whole entry): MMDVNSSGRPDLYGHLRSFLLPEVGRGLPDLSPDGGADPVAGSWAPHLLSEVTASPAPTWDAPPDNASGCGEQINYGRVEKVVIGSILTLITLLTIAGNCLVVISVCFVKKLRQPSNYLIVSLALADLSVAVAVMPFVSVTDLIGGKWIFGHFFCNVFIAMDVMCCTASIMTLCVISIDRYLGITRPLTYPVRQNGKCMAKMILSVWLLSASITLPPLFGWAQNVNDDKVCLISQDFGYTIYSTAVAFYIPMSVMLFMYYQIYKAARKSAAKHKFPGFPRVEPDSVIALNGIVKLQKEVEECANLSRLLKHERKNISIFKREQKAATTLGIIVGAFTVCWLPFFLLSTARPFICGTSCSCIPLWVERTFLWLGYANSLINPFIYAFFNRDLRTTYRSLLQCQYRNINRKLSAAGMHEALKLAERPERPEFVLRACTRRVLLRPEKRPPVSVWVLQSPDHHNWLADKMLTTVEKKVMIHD

[8] = biological target: T4, Alpha-2A adrenergic receptor (Homo sapiens, UniProt P08913); assay: as §1, with “ADRA2A” for “HTR5A”
T4 sequence (P08913 whole entry): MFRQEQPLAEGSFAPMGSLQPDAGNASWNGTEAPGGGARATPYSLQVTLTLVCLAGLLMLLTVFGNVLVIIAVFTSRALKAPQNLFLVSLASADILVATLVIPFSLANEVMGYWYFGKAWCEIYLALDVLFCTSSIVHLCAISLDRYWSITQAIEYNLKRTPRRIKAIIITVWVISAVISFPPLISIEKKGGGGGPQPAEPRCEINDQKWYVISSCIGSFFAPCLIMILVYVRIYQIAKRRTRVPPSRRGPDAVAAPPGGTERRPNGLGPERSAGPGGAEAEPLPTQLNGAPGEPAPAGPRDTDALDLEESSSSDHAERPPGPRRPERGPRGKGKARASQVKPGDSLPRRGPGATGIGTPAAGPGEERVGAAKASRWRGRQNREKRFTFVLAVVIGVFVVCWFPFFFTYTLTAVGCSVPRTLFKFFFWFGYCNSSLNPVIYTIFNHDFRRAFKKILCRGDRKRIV

SMILES	Ki [1] [µM]	Ki [2] [µM]	Ki [3] [µM]	Ki (D(3) dopamine receptor) [µM]	Ki [4] [µM]	Ki [5] [µM]	Ki [6] [µM]	Ki [7] [µM]	Ki [8] [µM]
COc1ccc(NC(=O)c2ccc(-c3ccc(-c4noc(C)n4)cc3C)cc2)cc1OCCN(C)C	1.16	0.694	0.667		0.264		0.00118	1.1	0.44
CN1C[C@H](C(=O)N[C@]2(C)O[C@@]3(O)[C@@H]4CCCN4C(=O)[C@H](Cc4ccccc4)N3C2=O)C[C@@H]2c3cccc4[nH]cc(c34)C[C@H]21 [DIHYDROERGOTAMINE MESYLATE]	0.0313	2.84		0.034	0.214	0.0329	0.108	0.0602	
C[C@H](Cc1cc2c(c(C(N)=O)c1)N(CCCO)CC2)NCCOc1ccccc1OCC(F)(F)F [SILODOSIN]			0.786	0.0716		0.0303	0.373	0.48	0.683
Clc1cccc(COc2cncc(N3CCNCC3)n2)c1				0.284	0.00945		1.66	0.556	
Cc1nc(-c2ccc(-c3ccc(C(=O)N4CCc5cc6c(cc54)C4(CCN(C)CC4)CO6)cc3)c(C)c2)no1 [SB-224289]		0.502	2.17		0.859				2.43
O=S1(=O)c2cccc3cccc(c23)N1CCCN1CCN(c2ccc(F)cc2)CC1 [FANANSERIN]	6.73	1.32	0.667	1.02		0.195		0.744	2.02
CN1CCN(c2ccc(Nc3c4ccccc4nc4ccccc34)cc2)CC1		0.936				1.58		0.414	
Cc1ccc2c(c1)c1c(n2CCc2ccc(C)nc2)CCN(C)C1 [LATREPIRDINE]	0.107		0.0458	0.461		0.414		0.0147	0.729
CCc1ccc(OCc2ccccc2C(=O)Nc2ccc3nc(C)cc(N)c3c2)cc1	2.45	0.7	3.14		0.328				
Cc1c(P(=S)(c2ccccc2)c2ccccc2)n2ccccc2[n+]1C/C=C/c1ccccc1		0.701							0.568
N#Cc1ccc2[nH]cc(CCCCN3CCN(c4ccc5oc(C(N)=O)cc5c4)CC3)c2c1 [VILAZODONE HYDROCHLORIDE]		1.09		0.133		0.278	1.24	0.794	2.49

The remaining compounds from weak to strong by Ki [2], led by results:

Ki [1] [µM]	Ki [2] [µM]	Ki [3] [µM]	Ki (D(3) dopamine receptor) [µM]	Ki [4] [µM]	Ki [5] [µM]	Ki [6] [µM]	Ki [7] [µM]	Ki [8] [µM]	SMILES
3.29	0.488	1.09		1.25		0.129	0.0761	1.74	CN(C)C(=O)N[C@H]1CC[C@H](CCN2CCN(c3cccc(Cl)c3Cl)CC2)CC1 [CARIPRAZINE HYDROCHLORIDE]
0.102	0.339	0.655	0.0355	0.00409	0.172	0.281	0.0473	0.367	Cc1nc2sccn2c(=O)c1CCN1CCC(=C(c2ccc(F)cc2)c2ccc(F)cc2)CC1 [RITANSERIN]
0.431	0.328		0.425	1.85		0.366	0.313		COC(=O)C1=C(C)NC(C)=C(C(=O)OCCCN2CCC(c3ccccc3)(c3ccccc3)CC2)[C@H]1c1cccc([N+](=O)[O-])c1 [NIGULDIPINE]
1.09	0.222	0.192	0.38		0.137	0.262	0.0702		CCc1nn(CCCN2CCN(c3cccc(Cl)c3)CC2)c(=O)n1CCOc1ccccc1 [NEFAZODONE HYDROCHLORIDE]
0.557	0.185		0.768	0.893				2.94	COc1cc(-n2cnc3cc(-c4ccc(Cl)cc4)sc3c2=O)ccc1OCCN1CCCC1
1.55	0.153	0.512	0.641	0.251	0.513	1.04	1.54	0.178	S=C(NCCCc1c[nH]cn1)NCCCN(Cc1ccc(Cl)c(Cl)c1)c1ccc(Br)cn1
0.178	0.063	0.191	0.0104	0.0605	0.0293	0.0426	0.0304	0.212	O=c1ccc2ccc(OCCCCN3CCN(c4cccc5sccc45)CC3)cc2[nH]1 [BREXPIPRAZOLE]
0.201	0.0572	2.84	0.426	0.142	1.63				CCCCCNC(=N)N/N=C/c1c[nH]c2ccc(OC)cc12 [TEGASEROD MALEATE]
	0.0324	1.94	1.26	4.09	0.549	1.99	0.257	> 10	OCc1cc(C(O)CNCCCCCCOCCCCc2ccccc2)ccc1O (centres undefined) [SALMETEROL]
	0.032	0.23	0.636		0.496	4.23	0.385	1.45	CN1CCCC(n2nc(Cc3ccc(Cl)cc3)c3ccccc3c2=O)CC1 (centres undefined) [AZELASTINE HYDROCHLORIDE]
